Source: patent US10118131B2, “Method for preventing microbial growth on a filtration membrane” (KEMIRA OYJ, priority 2011, dated 2018)

Key:
[1] = Flux of membrane before and after soaking in biocide in synthetic sea water (flat sheet cell); conditions: for Initial flux: before soaking
Method: Flux and salt rejection of fresh membrane were measured before and after soaking. The membrane was placed in a flat sheet cell (Alfa Laval LabM20). The operating conditions were, feed pressure 20 bar (for sea water membrane 55 bar), salt (synthetic sea water prepared according to ASTM standard D1141), temperature 25° C. The flux measurement was done for 3 hours.
Soaking was done by mixing biocide with synthetic sea water. The concentration of the added biocide in the synthetic sea water was for PFA 14 and 84 mg/l as active substance, for peracetic acid (PAA) 7, 18 and 35 mg/l as active substance and sodium hypochlorite 20 mg/l as active substance. PFA was added to the synthetic seawater as an equilibrium solution having PFA content 14 weight-%, PAA was added as an equilibrium solution having PAA content 35 weight-% and sodium hypochlorite having concentration of 15 weight-%.
The soaking time was 24 or 144 hours. Performic acid equilibrium solution was made by mixing in 1:1 weight proportion of a solution that contained 50% hydrogen peroxide with a solution that contained 75 weight-% formic acid, 12 weight-% sulfuric acid and 13 weight-% water. After soaking membranes were placed again to the flat sheet cell and salt rejection and flux were measured at the same conditions as before soaking.

[2] = Laboratory scale continuous filtration experiment, PFA added continuously into feed
Method: The impact of PFA on membrane was further studied by a laboratory scale continuous filtration experiment. The type of membrane used in the experiment was brackish water membrane (FilmTec BW30LE).
The continuous filtration has been done in parallel. From a single brackish water tank the water was pumped to two parallel lines with flat sheet cells having similar brackish water membrane. In one line PFA was added continuously into feed and in other line (control) there was no PFA addition. The filtration conditions were as follows: pressure 15 bar, salt (sea salt): 2 g/l, Temperature: 20° C., flow rate: 48 l/h, PFA dosing rate: 6.5 g/h equilibrium solution having PFA active substance concentration 14 weight-% (=19.8 ppm active substance/l of brackish water). Flux and conductivity of permeate and concentrate were monitored and collected over time (for 30 days).

O=COO [Performic acid, performic acid]
Flux after soaking ([1]; 14 mg/l active substance in synthetic sea water, soaking 144 hour): 84
Flux after soaking ([1]; 84 mg/l active substance in synthetic sea water, soaking 24 hour): 95
Initial flux ([1]; membrane later soaked at 14 mg/l active substance, 144 hour): 86
Initial flux ([1]; membrane later soaked at 84 mg/l active substance, 24 hour): 98
differences between flux before and after soaking ([1]; soaked membranes of Table 1): less than 15%
Initial permeate flux ([2]; 19.8 ppm active substance continuously in feed, 15 bar, sea salt 2 g/l, 20° C.): 250 g/h
Final permeate flux ([2]; 19.8 ppm active substance continuously in feed, 30 days, 15 bar, sea salt 2 g/l, 20° C.): 250 g/h
changes in flux over test period ([2]; FIG. 1 B, PFA added continuously, 30 days): small

CC(=O)OO [Peracetic acid, peracetic acid]
Flux after soaking ([1]; 7 mg/l active substance in synthetic sea water, soaking 144 hour): 73
Flux after soaking ([1]; 18 mg/l active substance in synthetic sea water, soaking 144 hour): 53
Flux after soaking ([1]; 35 mg/l active substance in synthetic sea water, soaking 144 hour): 44
Initial flux ([1]; membrane later soaked at 7 mg/l active substance, 144 hour): 86
Initial flux ([1]; membrane later soaked at 18 mg/l active substance, 144 hour): 91
Initial flux ([1]; membrane later soaked at 35 mg/l active substance, 144 hour): 86

[Na+].[O-]Cl [Hypochlorite, sodium hypochlorite]
differences between flux before and after soaking ([1]; not told): > 15%
